Measured values reported in patent publication US6939989B2, “Side-chain halogenated amino dicarboxylic acid derivatives as medicaments for treating cardiovascular diseases” (Bayer Aktiengesellschaft, priority 2001, dated 2005).
Each block holds one compound with its values, some of them ahead of it.

How the values were obtained:
[1] = system: arteria saphena rings; assay: Vasorelaxant effect in vitro (phenylephrine-contracted arteria saphena rings); format: cell-based, Rabbits; settings: Oryctolagus cuniculus; rabbit arteria saphena rings, phenylephrine contraction
Protocol: Rabbits are anesthetized or killed by intravenous injection of thiopental sodium (about 50 mg/kg) and exsanguinated. The arteria saphena is removed and divided into rings 3 mm wide. The individual rings are in each case mounted on a pair of hooks of triangular shape, open at the ends and made of special wire (Remanium®) having a diameter of 0.3 mm. Under pretension, each ring is introduced into a 5 ml organ bath containing carbogen-gassed Krebs-Henseleit solution at 37° C. with the following composition (mM): NaCl: 119; KCl: 4.8; CaCl2×2H2O: 1; MgSO4×7H2O: 1.4; KH2PO4: 1.2; NaHCO3: 25; glucose: 10; bovine serum albumin: 0.001%. The force of contraction is detected with Statham UC2 cells, amplified and digitized via A/D converters (DAS-1802 HC, Keithley Instruments, Munich) and recorded in parallel on chart recorders. Contractions are generated by adding phenylephrine.
After several (generally 4) control cycles, the substance to be investigated is added in each further run in increasing dosage, and the height of the contraction reached under the influence of the test substance is compared with the height of the contraction reached in the last preceding run. The concentration necessary to reduce the height of the control value by 50% (IC50) is calculated from this. The standard application volume is 5 μl. The DMSO content in the bath solution corresponds to 0. 1%.

[2] = molecular target: T1, Heme-containing sGC (Rattus norvegicus, UniProt P20595); assay: Stimulation of recombinant soluble guanylate cyclase (sGC) in vitro, heme-containing enzyme; format: biochemical; settings: for Stimulation (n-fold), heme-containing sGC, DEA/NO alone: Ex. 6 0 μM
T1 construct: made in house; host or cells: Sf9 insect cells (baculovirus)
T1 sequence (P20595 1-619): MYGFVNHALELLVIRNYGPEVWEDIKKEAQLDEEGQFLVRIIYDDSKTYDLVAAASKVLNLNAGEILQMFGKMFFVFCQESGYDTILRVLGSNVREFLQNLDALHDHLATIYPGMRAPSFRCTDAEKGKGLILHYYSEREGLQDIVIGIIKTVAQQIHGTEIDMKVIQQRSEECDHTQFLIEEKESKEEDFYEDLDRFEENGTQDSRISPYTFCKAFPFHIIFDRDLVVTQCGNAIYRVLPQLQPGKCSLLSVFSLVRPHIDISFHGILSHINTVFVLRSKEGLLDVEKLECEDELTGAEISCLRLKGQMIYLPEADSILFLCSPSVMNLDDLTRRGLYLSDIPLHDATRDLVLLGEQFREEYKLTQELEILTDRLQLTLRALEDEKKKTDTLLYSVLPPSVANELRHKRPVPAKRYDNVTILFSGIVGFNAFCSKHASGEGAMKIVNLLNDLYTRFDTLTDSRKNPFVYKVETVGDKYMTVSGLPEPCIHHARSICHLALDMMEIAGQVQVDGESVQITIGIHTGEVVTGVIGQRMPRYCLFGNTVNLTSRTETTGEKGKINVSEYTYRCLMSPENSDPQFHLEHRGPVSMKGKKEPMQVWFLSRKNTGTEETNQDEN
T1 sequence (P19686 1-690 partner): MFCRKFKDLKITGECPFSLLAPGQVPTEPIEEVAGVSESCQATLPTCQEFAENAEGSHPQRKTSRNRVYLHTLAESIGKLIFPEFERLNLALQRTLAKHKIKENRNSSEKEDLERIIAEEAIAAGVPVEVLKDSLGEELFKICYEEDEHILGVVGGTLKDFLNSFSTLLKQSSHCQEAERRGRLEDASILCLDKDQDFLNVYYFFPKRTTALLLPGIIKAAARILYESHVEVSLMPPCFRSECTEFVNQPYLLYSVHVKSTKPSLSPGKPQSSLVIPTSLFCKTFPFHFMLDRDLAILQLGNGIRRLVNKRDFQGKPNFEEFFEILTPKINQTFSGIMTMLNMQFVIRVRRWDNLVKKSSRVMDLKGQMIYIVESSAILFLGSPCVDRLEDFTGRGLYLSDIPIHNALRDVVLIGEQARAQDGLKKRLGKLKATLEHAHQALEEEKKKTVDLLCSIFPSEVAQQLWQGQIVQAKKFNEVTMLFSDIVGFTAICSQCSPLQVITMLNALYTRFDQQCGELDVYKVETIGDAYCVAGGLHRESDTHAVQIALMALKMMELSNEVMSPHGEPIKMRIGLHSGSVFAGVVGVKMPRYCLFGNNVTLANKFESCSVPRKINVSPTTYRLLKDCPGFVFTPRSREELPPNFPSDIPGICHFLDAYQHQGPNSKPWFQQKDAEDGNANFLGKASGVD
Protocol: The investigations of the stimulation of recombinant soluble guanylate cyclase (sGC) […] heme-dependent sGC inhibitor 1H-1,2,4-oxadiazole-(4,3a)-quinoxalin-1-one (ODQ) were carried out according to the method described in detail in the following literature reference: M. Hoenicka, E. M. Becker, H. Apeler, T. Sirichoke, H. Schroeder, R. Gerzer and J.-P. Stasch: Purified soluble guanylyl cyclase expressed in a baculovirus/Sf9 system: stimulation by YC-1, nitric oxide, and carbon oxide. J. Mol. Med. 77 (1999): 14-23.
(§1) Activation of sGC by a test substance is stated as n-fold stimulation of basal activity.

[3] = molecular target: T2, Heme-free sGC (Rattus norvegicus, UniProt P20595); assay: Stimulation of recombinant soluble guanylate cyclase (sGC) in vitro, heme-free enzyme; format: biochemical
T2 construct: made in house; host or cells: Sf9 insect cells (baculovirus)
T2 sequence (P20595 1-619): T1 sequence (P20595 1-619)
T2 sequence (P19686 1-690 partner): T1 sequence (P19686 1-690 partner)
Protocol: The investigations of the stimulation of recombinant soluble guanylate cyclase (sGC) and the compounds according to the invention with and without sodium nitroprusside and with and without the heme-dependent sGC inhibitor 1H-1,2,4-oxadiazole-(4,3a)-quinoxalin-1-one (ODQ) were carried out according to the method described in detail in the following literature reference: M. Hoenicka, E. M. Becker, H. Apeler, T. Sirichoke, H. Schroeder, R. Gerzer and J.-P. Stasch: Purified soluble guanylyl cyclase expressed in a baculovirus/Sf9 system: stimulation by YC-1, nitric oxide, and carbon oxide. J. Mol. Med. 77 (1999): 14-23.
The heme-free guanylate cyclase was obtained by adding Tween 20 to the sample buffer (final concentration 0.5%).
as §1

[4] = system: porcine serum-induced rat liver fibrosis; assay: Antifibrotic action in vivo, porcine serum-induced rat liver fibrosis; design: species or system Female Sprague Dawley rats; settings: seven weeks
From the text: The antifibrotic action of the substances was investigated using the model of the porcine serum-induced rat liver fibrosis. Treatment with heterologous serum, for example porcine serum in rats, is a method frequently used in the literature for inducing fibrosis of the liver with subsequent cirrhosis which, in contrast to other models, causes only minimal damage and inflammation of the parenchyma cells of the liver (Bhunchet, E. and Wake, K. (1992): Role of mesenchymal cell populations in porcine serum-induced rat liver fibrosis. Hepatology 16: 1452-1473). […] After seven weeks of treatment, the animals were killed and the livers were removed in order to quantify the collagen content. […]
Fast Green was used as counterstain to enhance contrasts. In each section, the extent of liver fibrosis was determined as a percentage of the area stained by Pikrosirius Red of the total area measured. […] 64 fields of a standardized grid of 31 mm^2 were measured using a final amplification of 100. […]
To determine OH-proline according to Prockop and Udenfried (Prockop, D. J. and Udenfried, S. A. (1960): A specific method for the analysis of hydroxyproline in tissues and urine. Anal. Biochem. 1: 228-239), in each case 50-100 mg of liver tissue were dried and boiled with 6N HCl for about 17 hours. […] After 3 hours of incubation at 35° C., absorption at 573 nm was measured. […]

Compound: CCN(CC)[N+]([O-])=NO [DEA/NO, 2-(N,N-diethylamino)diazenolate 2-oxide, reference compound]
Stimulation (n-fold), heme-containing sGC, DEA/NO alone ([2]; DEA/NO 0.001 μM): 5 n-fold
Stimulation (n-fold), heme-containing sGC, DEA/NO alone ([2]; DEA/NO 0.01 μM): 30 n-fold
Stimulation (n-fold), heme-containing sGC, DEA/NO alone ([2]; DEA/NO 0.1 μM): 124 n-fold

Compound: O=C(O)CCCCN(CCc1ccccc1OCc1ccc(-c2ccc(C(F)(F)F)cc2)cc1Cl)Cc1ccc(C(=O)O)cc1 [Example 6]
IC50 [1]: 170 pM
Stimulation (n-fold), heme-containing sGC, basal ([2]; Ex. 6 0.001 μM): 2 n-fold
Stimulation (n-fold), heme-containing sGC, + DEA/NO (0.001 μM) ([2]; Ex. 6 0.001 μM + DEA/NO 0.001 μM): 6 n-fold
Stimulation (n-fold), heme-containing sGC, + DEA/NO (0.01 μM) ([2]; Ex. 6 0.001 μM + DEA/NO 0.01 μM): 32 n-fold
Stimulation (n-fold), heme-containing sGC, + DEA/NO (0.1 μM) ([2]; Ex. 6 0.001 μM + DEA/NO 0.1 μM): 127 n-fold
Stimulation (n-fold), heme-containing sGC, + ODQ (10 μM) ([2]; Ex. 6 0.001 μM + ODQ 10 μM): 35 n-fold
Stimulation (n-fold), heme-containing sGC, basal ([2]; Ex. 6 0.01 μM): 9 n-fold
Stimulation (n-fold), heme-containing sGC, + DEA/NO (0.001 μM) ([2]; Ex. 6 0.01 μM + DEA/NO 0.001 μM): 13 n-fold
Stimulation (n-fold), heme-containing sGC, + DEA/NO (0.01 μM) ([2]; Ex. 6 0.01 μM + DEA/NO 0.01 μM): 39 n-fold
Stimulation (n-fold), heme-containing sGC, + DEA/NO (0.1 μM) ([2]; Ex. 6 0.01 μM + DEA/NO 0.1 μM): 134 n-fold
Stimulation (n-fold), heme-containing sGC, + ODQ (10 μM) ([2]; Ex. 6 0.01 μM + ODQ 10 μM): 95 n-fold
Stimulation (n-fold), heme-containing sGC, basal ([2]; Ex. 6 0.1 μM): 18 n-fold
Stimulation (n-fold), heme-containing sGC, + DEA/NO (0.001 μM) ([2]; Ex. 6 0.1 μM + DEA/NO 0.001 μM): 25 n-fold
Stimulation (n-fold), heme-containing sGC, + DEA/NO (0.01 μM) ([2]; Ex. 6 0.1 μM + DEA/NO 0.01 μM): 52 n-fold
Stimulation (n-fold), heme-containing sGC, + DEA/NO (0.1 μM) ([2]; Ex. 6 0.1 μM + DEA/NO 0.1 μM): 157 n-fold
Stimulation (n-fold), heme-containing sGC, + ODQ (10 μM) ([2]; Ex. 6 0.1 μM + ODQ 10 μM): 147 n-fold
Stimulation (n-fold), heme-containing sGC, basal ([2]; Ex. 6 1.0 μM): 23 n-fold
Stimulation (n-fold), heme-containing sGC, + DEA/NO (0.001 μM) ([2]; Ex. 6 1.0 μM + DEA/NO 0.001 μM): 30 n-fold
Stimulation (n-fold), heme-containing sGC, + DEA/NO (0.01 μM) ([2]; Ex. 6 1.0 μM + DEA/NO 0.01 μM): 53 n-fold
Stimulation (n-fold), heme-containing sGC, + DEA/NO (0.1 μM) ([2]; Ex. 6 1.0 μM + DEA/NO 0.1 μM): 151 n-fold
Stimulation (n-fold), heme-containing sGC, + ODQ (10 μM) ([2]; Ex. 6 1.0 μM + ODQ 10 μM): 150 n-fold
Stimulation (n-fold), heme-containing sGC, basal ([2]; Ex. 6 10 μM): 25 n-fold
Stimulation (n-fold), heme-containing sGC, + DEA/NO (0.001 μM) ([2]; Ex. 6 10 μM + DEA/NO 0.001 μM): 30 n-fold
Stimulation (n-fold), heme-containing sGC, + DEA/NO (0.01 μM) ([2]; Ex. 6 10 μM + DEA/NO 0.01 μM): 67 n-fold
Stimulation (n-fold), heme-containing sGC, + DEA/NO (0.1 μM) ([2]; Ex. 6 10 μM + DEA/NO 0.1 μM): 174 n-fold
Stimulation (n-fold), heme-containing sGC, + ODQ (10 μM) ([2]; Ex. 6 10 μM + ODQ 10 μM): 159 n-fold
Stimulation (n-fold), heme-free sGC, basal ([3]; Ex. 6 0.001 μM): 10 n-fold
Stimulation (n-fold), heme-free sGC, + ODQ (10 μM) ([3]; Ex. 6 0.001 μM + ODQ 10 μM): 25 n-fold
Stimulation (n-fold), heme-free sGC, basal ([3]; Ex. 6 0.01 μM): 55 n-fold
Stimulation (n-fold), heme-free sGC, + ODQ (10 μM) ([3]; Ex. 6 0.01 μM + ODQ 10 μM): 61 n-fold
Stimulation (n-fold), heme-free sGC, basal ([3]; Ex. 6 0.1 μM): 81 n-fold
Stimulation (n-fold), heme-free sGC, + ODQ (10 μM) ([3]; Ex. 6 0.1 μM + ODQ 10 μM): 79 n-fold
Stimulation (n-fold), heme-free sGC, basal ([3]; Ex. 6 1.0 μM): 83 n-fold
Stimulation (n-fold), heme-free sGC, + ODQ (10 μM) ([3]; Ex. 6 1.0 μM + ODQ 10 μM): 83 n-fold
Stimulation (n-fold), heme-free sGC, basal ([3]; Ex. 6 10 μM): 84 n-fold
Stimulation (n-fold), heme-free sGC, + ODQ (10 μM) ([3]; Ex. 6 10 μM + ODQ 10 μM): 83 n-fold
Reduction of collagen deposits in the liver (OH-proline, morphometric fibrosis measurement) ([4]; 0.03 mg/kg p.o. o.d.): about a half
Reduction of collagen deposits in the liver (OH-proline, morphometric fibrosis measurement) ([4]; 0.1 mg/kg p.o. o.d.): about a half

Compound: CC(C)(C)c1ccc(-c2ccc(COc3ccccc3CCN(CCCCC(=O)O)Cc3ccc(C(=O)O)cc3)c(F)c2)cc1 [Example 2]
IC50 [1]: 150 pM

Results, then the compound that gave them:

IC50 [1]: 2000 pM
Compound: O=C(O)CCCCN(CCc1ccccc1OCc1ccc(C2CCCCC2)cc1Cl)Cc1ccc(C(=O)O)cc1 [Example 12]

IC50 [1]: 1800 pM
Compound: O=C(O)CCCCN(CCc1ccccc1OCc1ccc(C2=CCCCC2)cc1Cl)Cc1ccc(C(=O)O)cc1 [Example 9]
